“Also recorded” adds a separate entry of the source. Where two headings read alike, the source gives them in different places.
Tests used:
JB6 P+ cells [1] = assay: Anchorage-independent growth assay in soft agar (EGF-induced JB6 P+ colony formation); assay type: cell-based, mouse; details: for minimal effective concentration / IC50 / Emax: Mus musculus; for minimal effective concentration / IC50 / effect on EGF-mediated transformation of JB6 P+ cells, words: 10 ng/mL EGF; for minimal effective concentration: first concentration with expected statistical decrease, read-out: Soft Agar Assay Log IΔ2*PSD (converted); for Emax: efficacy of inhibition of colony formation, reported if non-toxic
Procedure: Ten ng/mL EGF was used to promote the anchorage-independent growth of JB6 cells. […] Plates were incubated at 37°C, 5% CO2 for 14 days. Colonies with greater than ten cells were counted manually under a microscope. […] Normalization allowed for comparison of data over a range of JB6 P+ cell cultures, passages, and experimental time for the shRNA studies, as well as control for variation in the EGF response, and importantly allowed for a direct comparison to all concentration-response experiments including the toxicity assays. […] All group sizes were determined via previous studies to provide statistically meaningful data. In the soft agar assays, key results were repeated with different JB6 P+ cells to confirm the results. Similarly, the shRNA studies were conducted with three independent concentration-response curves with different JB6 P+ cell stocks. […] For two sample comparisons a t-test was utilized, and when comparing multiple samples a One-, Two-, or Three-Factor ANOVA followed by Tukey-Kramer post hoc test was utilized depending on the data. For all tests, statistical difference was donated when p < 0.05. […] The I[…]*PSD is expressed in x-axis units (log [M]) as is an IC50 and it represents the first concentration where it is expected to observe a statistical decrease in the measured signal. […] Using the formula provided by GraphPad Prism or a straight line for the point-to-point graphs, the X-axis value for point Y was determined. The error is ascribed to this measurement via adding and subtracting the pooled standard deviation (PSD) to/from point Y generating point Y ± PSD. The two new points were then transformed to the X-axis units as was done for point Y creating an asymmetric error in sigmoidal plots. When the error was asymmetric, the larger error value was chosen to err on the conservative side. See S1 Fig for a pictoral explination of the method. The data is presented as I[…]*PSD ± error.

β2-AR = tested on: β2-AR; design: method as in as printed in each cell (43-46, 48-54, 56-58); details: as described in the references; ref (43-46, 48-54, 56-58); cited from earlier work
JB6 P+ cells [2] = assay: SRB cytotoxicity assay; assay type: cell-based, mouse; details: for SRB Assay Log IΔ2*PSD: NT = no toxicity at any concentration tested; for Toxicity label: Toxic = no 10-fold difference between IΔ2*PSD from soft agar and SRB assays
Procedure: 96-well plates were seeded with 3x10^3 JB6 P+ cells per well and allowed to attach overnight. […] Cell viability was determined using Sulforhodamine B (SRB) assay from Sigma-Aldrich according to the manufacturer’s protocol. Cellular protein content was measured using a Bio-Tek μQuant plate reader with KCJunior software.
Concentration-response curves were normalized so that the EGF positive control on each 96-well plate was set to 100% and the control wells on each plate were set to 0%. Toxicity assays (SRB and MTS) were normalized so that the control on each plate represented 100% viability. Normalization allowed for comparison of data over a range of JB6 P+ cell cultures, passages, and experimental time for the shRNA studies, as well as control for variation in the EGF response, and importantly allowed for a direct comparison to all concentration-response experiments including the toxicity assays. […] All group sizes were determined via previous studies to provide statistically meaningful data. In the soft agar assays, key results were repeated with different JB6 P+ cells to confirm the results. Similarly, the shRNA studies were conducted with three independent concentration-response curves with different JB6 P+ cell stocks. […] For two sample comparisons a t-test was utilized, and when comparing multiple samples a One-, Two-, or Three-Factor ANOVA followed by Tukey-Kramer post hoc test was utilized depending on the data. For all tests, statistical difference was donated when p < 0.05.
The IΔ2*PSD is expressed in x-axis units (log [M]) as is an IC50 and it represents the first concentration where it is expected to observe a statistical decrease in the measured signal.
Using the formula provided by GraphPad Prism or a straight line for the point-to-point graphs, the X-axis value for point Y was determined. The error is ascribed to this measurement via adding and subtracting the pooled standard deviation (PSD) to/from point Y generating point Y ± PSD. The two new points were then transformed to the X-axis units as was done for point Y creating an asymmetric error in sigmoidal plots. When the error was asymmetric, the larger error value was chosen to err on the conservative side. See S1 Fig for a pictoral explination of the method. The data is presented as IΔ2*PSD ± error.

JB6 P+ cells [3] = details: cited from earlier work
[4] = tested on: hairless mice (UV-induced skin thickening); assay: Eight dose UV exposure, bi-folded epidermal thickness in hairless wild type and β2-AR knockout mice; assay type: in vivo, mouse; details: 5 μM in 200 μL acetone topically every other day, 200 mJ/cm^2 UV, eight irradiations
Procedure: The Western University of Health Sciences’ Institutional Animal Care and Use Committee (WesternU IACUC) approved all animal studies prior to initiating any experiments. The animal studies were carried out under WesternU IACUC recommendations and guidelines, which follow NIH guidelines. Mice had access to water and food ad libitum and housed on a 12-hour light/dark cycle with 35% humidity. Homozygous β1-AR and β2-AR null mice (Adrb1^tm1Bkk Adrb2^tm1Bkk/J Stock Number 003810) were purchased from Jackson Laboratory (Bar Harbor, ME); the double knockout mice were characterized previously. The double knockout mice were bred with C57BL/6J from Jackson Lab to generate a heterozygous F1 generation. The F1 generation was bred together to generate the F2 generation of which 1/16th of the offspring were a β2-AR knockout mouse. SKH-1 mice purchased from Charles River (Wilmington, MA) were bred with the β2-AR knockout mice generating a second heterozygous F1 generation. The F1 generation was bred together to generate the F2 generation of which 1/16th of the offspring were a hairless β2-AR knockout mouse. The F2 generation was backcrossed with a new batch of SKH-1 from Charles River to generate mice more efficiently. The mice used in this study are 75% SKH-1 and 25% mixed background. Following experimentation, and to cull the unused mice in a colony, mice were euthanized via exposure to 32% Isoflurane followed by cervical dislocation to ensure euthanization prior to disposal.
The first two weeks were pretreatment and the second two weeks were during the UV irradiation procedure, but drugs were applied the day after UV exposure to avoid sunscreen effects. All groups involved with UV were irradiated with 200 mJ/cm^2 dose of UV every other day for a total of eight irradiations. Bi-folded epidermal thickness was measured using a digital caliper before drug treatment on non-radiation days. Three skin thickness measurements were taken along the left, middle, and right dorsal epidermal layer, and the mean thickness was recorded for each mouse.

α1D-AR = details: read-out: Kd towards the α1D-AR; cited from earlier work
[5] = soft agar, read-out: IC50, inhibition of EGF-mediated transformation
[6] = 336 h, 14 days, negative log value, read-out: Soft Agar Assay Log IC50 (converted)

Row | SMILES | minimal effective concentration (JB6 P+ cells [1]; 336 h, 14 days) | Pharmacological property at β2-AR (β2-AR) | SRB Assay Log IΔ2*PSD (JB6 P+ cells [2]; 72 hr) | IC50 (JB6 P+ cells [1]; [6]) | Emax (JB6 P+ cells [1]) | Toxicity label (JB6 P+ cells [2]) | further results
1 | CC(C)NCC(O)COc1cccc2ccccc12 (stereo not shown) [Propranolol] | 5.5 µM | Inverse agonist for cAMP that recruits ±-arr [29, 51] | -4.20 ± 0.11 log [M] |  |  |  | 
2 | CC(C)NCC(O)c1ccc2ccccc2c1 (stereo not shown) [Pronethalol] |  | Inverse agonist for cAMP [48] | -4.86 ± 0.23 log [M] | 2510 nM | 100% |  | IC50 (JB6 P+ cells [1]; [5]): 2530 nM
3 | CC(C)NCC(O)COc1ccc(CC(N)=O)cc1 (stereo not shown) [Atenolol] |  | Inverse agonist for cAMP [50] |  |  | 47.9 ± 7.81% |  | Soft Agar Assay Log IC50 (JB6 P+ cells [3]; 10 ng/mL EGF, negative log value): -5.04 ± 0.27 [19] log [M]; effect on EGF-mediated transformation of JB6 P+ cells, words (JB6 P+ cells [3]; previous data): less potent and displayed partial efficacy; IC50 (JB6 P+ cells [3]; previously published atenolol, read-out: IC50, inhibition of EGF-mediated transformation): 9190 nM
4 | Oc1cccc2[nH]c3ccccc3c12 [4-OHC, 4-Hydroxycarbazole] |  |  |  |  |  |  | effect on UV-induced skin thickening, words ([4]; wild type mice): little effect in wild type mice; effect on UV-induced skin thickening, words ([4]; β2-AR knockout mice): no effect in knockout mice
5 | CC(CCc1ccccc1)NCC(O)c1ccc(O)c(C(N)=O)c1 (stereo not shown) [Labetalol] |  | Partial agonist for cAMP and full agonist for ERK [44, 45] |  | 501 nM | 90.3 ± 8.48% |  | 
6 | CC(C)(C)NC[C@H](O)COc1nsnc1N1CCOCC1 [Timolol] |  | Inverse agonist for cAMP [48] | -4.22 ± 0.34 log [M] | 3310 nM | 100% |  | IC50 (JB6 P+ cells [1]; [5]): 3310 nM
7 | Cc1ccc(Cl)c(OCC(O)CNC(C)(C)C)c1 (stereo not shown) [Bupranolol] |  | Antagonist, not specified | -4.80 ± 0.05 log [M] |  |  | Toxic | 
8 | CC(C)(C)NCC(O)COc1cccc2c1CC(O)C(O)C2 (stereo not shown) [Nadolol] | 4.68 µM | Inverse agonist for cAMP [44, 57] |  |  |  |  | effect on EGF-mediated transformation of JB6 P+ cells, words (JB6 P+ cells [1]; soft agar): do not prevent EGF-induced transformation of JB6 P+ cells
9 | C=CCc1ccccc1OCC(O)CNC(C)C (stereo not shown) [Alprenolol] |  | Biased agonist/ activates ERK [43] | -4.95 ± 0.06 log [M] | 427 nM | 93.8 ± 2.88% |  | 
10 | CC(C)NCC(O)c1ccc(O)c(O)c1 (stereo not shown) [Isoproterenol] | 24.5 µM | Full equipotent agonist [44, 58] | -4.77 ± 0.16 log [M] |  |  | Toxic | effect on EGF-mediated transformation of JB6 P+ cells, words (JB6 P+ cells [1]; soft agar): failed to increase EGF-mediated transformation of JB6 P+ cells
11 | CC(C)NCC(O)COc1cccc2[nH]c3ccccc3c12 (stereo not shown) [Carazolol] | 7.41 µM |  | -5.00 ± 0.14 log [M] |  |  | Toxic | 
12 | COCCc1ccc(OCC(O)CNC(C)C)cc1 (stereo not shown) [Metoprolol] | 24.5 µM | Inverse agonist for cAMP [51] | -4.52 ± 0.20 log [M] |  |  | Toxic | 
13 | CCCC(=O)Nc1ccc(OCC(O)CNC(C)C)c(C(C)=O)c1 (stereo not shown) [Acebutolol] | 49 µM | Partial agonist [56] | -3.39 ± 0.70 log [M] |  |  | Toxic | 
14 | CC(C)(C)NCC(O)COc1cccc2[nH]c(=O)[nH]c12 (stereo not shown) [CGP 12177] | 7.59 µM | Partial agonist [53] | -4.46 ± 0.19 log [M] |  |  | Toxic | effect on EGF-mediated transformation of JB6 P+ cells, words (JB6 P+ cells [1]; soft agar): do not prevent EGF-induced transformation of JB6 P+ cells
15 | Cc1ccc(OCC(O)C(C)NC(C)C)c2c1CCC2 (stereo not shown) [ICI 118,551] | 3.39 µM | Inverse agonist for cAMP that recruits ±-arr [29, 49] | -3.59 ± 0.50 log [M] | 4470 nM |  | Toxic | 
16 | Cl.O=C1c2ccccc2CCC1CNCCc1ccc(O)cc1 (stereo not drawn) [HEAT HCl, 2-{[β-(4-Hydroxyphenyl)ethyl]aminomethyl}-1-tetralone hydrochloride] | 0.145 µM |  | -5.99 ± 0.03 log [M] |  |  |  | effect on EGF-mediated transformation of JB6 P+ cells, words (JB6 P+ cells [1]; soft agar): only inhibited colony formation at 1 and 10 μM; also recorded: do not prevent EGF-induced transformation of JB6 P+ cells; Kd (α1D-AR): 0.361 ± 0.08 nM; toxicity in SRB assay, words (JB6 P+ cells [2]; 72 hr): toxicity at 10 μM
